Laboratory results from PubChem BioAssay (NCI).
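Growth conditions: 96-well plates. Treatment: test compound, 48 hours, 5 concentrations. Analysis: linear interpolation between bracketing concentrations; unreached endpoints set to highest concentration. GI50: concentration for 50% inhibition of growth. TGI denotes the concentration required for complete inhibition of growth.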

Assays:
Test in all cases: NCI anticancer screen, dose series, 48 h
HL-60(TB) leukemia = test system: HL-60(TB) leukemia
UO-31 renal = test system: UO-31 renal
UACC-257 melanoma = test system: UACC-257 melanoma
SF-268 CNS = test system: SF-268 CNS
MDA-MB-435 = test system: MDA-MB-435
CCRF-CEM leukemia = test system: CCRF-CEM leukemia
CAKI-1 renal = test system: CAKI-1 renal
HCT-116 colon = test system: HCT-116 colon
OVCAR-5 ovarian = test system: OVCAR-5 ovarian
NCI-H460 lung = test system: NCI-H460 lung
MOLT-4 leukemia = test system: MOLT-4 leukemia
COLO 205 colon = test system: COLO 205 colon
HOP-62 NSCLC = test system: HOP-62 NSCLC
SK-MEL-5 melanoma = test system: SK-MEL-5 melanoma
U251 CNS = test system: U251 CNS
LOX IMVI melanoma = test system: LOX IMVI melanoma
SNB-75 CNS = test system: SNB-75 CNS
SR leukemia = test system: SR leukemia
HS 578T breast = test system: HS 578T breast
TK-10 renal = test system: TK-10 renal
A549 NSCLC = test system: A549 NSCLC
M14 melanoma = test system: M14 melanoma
MALME-3M melanoma = test system: MALME-3M melanoma
786-0 renal = test system: 786-0 renal
MDA-MB-231 breast = test system: MDA-MB-231 breast
SN12C renal = test system: SN12C renal
SK-MEL-2 melanoma = test system: SK-MEL-2 melanoma
OVCAR-8 ovarian = test system: OVCAR-8 ovarian
OVCAR-4 ovarian = test system: OVCAR-4 ovarian

SMILES: C=C1C(=O)O[C@H]2[C@H]1CC/C(Cn1cc(Cc3c[nH]c4ccccc34)nn1)=C\CC[C@@]1(C)O[C@@H]21
- GI50 (HL-60(TB) leukemia): 2.02 µM
- TGI (HL-60(TB) leukemia): 4.74 µM
- GI50 (UO-31 renal): 1.49 µM
- TGI (UO-31 renal): 2.86 µM
- GI50 (UACC-257 melanoma): 2.11 µM
- TGI (UACC-257 melanoma): 4.45 µM
- GI50 (SF-268 CNS): 1.7 µM
- TGI (SF-268 CNS): 3.27 µM
- GI50 (MDA-MB-435): 1.73 µM
- TGI (MDA-MB-435): 3.46 µM
- GI50 (CCRF-CEM leukemia): 0.718 µM
- TGI (CCRF-CEM leukemia): 5.92 µM
- GI50 (CAKI-1 renal): 1.3 µM
- TGI (CAKI-1 renal): 2.64 µM
- GI50 (HCT-116 colon): 1.06 µM
- TGI (HCT-116 colon): 2.38 µM
- GI50 (OVCAR-5 ovarian): 1.8 µM
- TGI (OVCAR-5 ovarian): 3.48 µM
- GI50 (NCI-H460 lung): 3.51 µM
- TGI (NCI-H460 lung): 10.6 µM
- GI50 (MOLT-4 leukemia): 2.29 µM
- TGI (MOLT-4 leukemia): 6.04 µM
- GI50 (COLO 205 colon): 1.83 µM
- TGI (COLO 205 colon): 3.75 µM
- GI50 (HOP-62 NSCLC): 3.86 µM
- TGI (HOP-62 NSCLC): 14.9 µM
- GI50 (SK-MEL-5 melanoma): 1.89 µM
- TGI (SK-MEL-5 melanoma): 3.61 µM
- GI50 (U251 CNS): 1.89 µM
- TGI (U251 CNS): 3.63 µM
- GI50 (LOX IMVI melanoma): 1.55 µM
- TGI (LOX IMVI melanoma): 3.03 µM
- GI50 (SNB-75 CNS): 3.08 µM
- TGI (SNB-75 CNS): 12.5 µM
- GI50 (SR leukemia): 0.389 µM
- TGI (SR leukemia): 8.32 µM
- GI50 (HS 578T breast): 3.88 µM
- TGI (HS 578T breast): 18.3 µM
- GI50 (TK-10 renal): 1.82 µM
- TGI (TK-10 renal): 3.4 µM
- GI50 (A549 NSCLC): 8.63 µM
- TGI (A549 NSCLC): 23.5 µM
- GI50 (M14 melanoma): 1.31 µM
- TGI (M14 melanoma): 3.07 µM
- GI50 (MALME-3M melanoma): 1.63 µM
- TGI (MALME-3M melanoma): 3.07 µM
- GI50 (786-0 renal): 1.77 µM
- TGI (786-0 renal): 3.48 µM
- GI50 (MDA-MB-231 breast): 1.72 µM
- TGI (MDA-MB-231 breast): 3.48 µM
- GI50 (SN12C renal): 1.98 µM
- TGI (SN12C renal): 4.42 µM
- GI50 (SK-MEL-2 melanoma): 1.98 µM
- TGI (SK-MEL-2 melanoma): 3.95 µM
- GI50 (OVCAR-8 ovarian): 3.44 µM
- TGI (OVCAR-8 ovarian): 10.7 µM
- GI50 (OVCAR-4 ovarian): 2.05 µM
- TGI (OVCAR-4 ovarian): 5.61 µM
